Strand notation (5' to 3'): a small letter for the sugar, then the base; units joined by * are phosphorothioate-linked, units joined directly phosphodiester-linked; [ ] holds rarer units or linkages, { } end groups; capitals alone tell only the bases. k = constrained ethyl (cEt); [5mC] = 5-methylcytosine; d = 2'-deoxy (DNA)

One data set relates to human SMAD7 mRNA. Kind of data set: Antisense inhibition of human SMAD7 mRNA expression in Hep3B cells by 3-10-3 cEt gapmers, 10,000 nM, electroporation (Example 2). Type of data set: cell-based. To be noted: SMAD7 mRNA, Hep3B cells, 10,000 nM antisense oligonucleotide, electroporation, approximately 24 hours, primer probe set RTS5062, relative to untreated control cells. The procedure, abridged: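 SMAD7 mRNA was measured by real-time PCR (RTS5062) with RiboGreen total-RNA normalization, about 24 h after 10,000 nM gapmer was delivered by electroporation into Hep3B cells at 20,000 per well. Gapmers were 16-mer 3-10-3 cEt, fully phosphorothioate; values are % inhibition versus untreated controls.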
Regarding “829765 (antisense kG*k[5mC]*k[5mC]*dG*d[5mC]*dT*d[5mC]*d[5mC]*dT*dT*d[5mC]*dA*dG*kT*kT*kT) [compound 829765]”, the “% Inhibition” value stood at 28%.
The same measure, in the same setting: the figure for “829766 (antisense k[5mC]*kT*kG*d[5mC]*d[5mC]*dG*d[5mC]*dT*d[5mC]*d[5mC]*dT*dT*d[5mC]*kA*kG*kT) [compound 829766]” is 32%; for “829768 (antisense kG*k[5mC]*kA*dG*dG*dA*dG*dG*d[5mC]*dA*d[5mC]*dG*d[5mC]*kG*kG*kT) [compound 829768]” it is 41%.
As to “829769 (antisense k[5mC]*kA*kG*d[5mC]*dA*dG*dG*dA*dG*dG*d[5mC]*dA*d[5mC]*kG*k[5mC]*kG) [compound 829769]”, the “% Inhibition” value was found to be 46%.
For the substance “829770 (antisense k[5mC]*kA*kG*dT*d[5mC]*d[5mC]*dA*dG*dG*d[5mC]*dG*dG*d[5mC]*k[5mC]*kG*kG) [compound 829770]”, the “% Inhibition” value was 42%.
Consider “829771 (antisense kG*k[5mC]*kA*dG*dT*d[5mC]*d[5mC]*dA*dG*dG*d[5mC]*dG*dG*k[5mC]*k[5mC]*kG) [compound 829771]”, for which the “% Inhibition” value was determined as 22%.
The same measure, in the same setting: the figure for “829772 (antisense kA*kG*kG*dA*d[5mC]*dG*dA*dG*dG*dG*d[5mC]*dG*dG*k[5mC]*kT*kG) [compound 829772]” is 52%.
On to “829773 (antisense kG*kT*kA*dG*dG*dA*d[5mC]*dG*dA*dG*dG*dG*d[5mC]*kG*kG*k[5mC]) [compound 829773]”, for which the “% Inhibition” value came to 50%.
Regarding “829774 (antisense kA*kG*kT*dA*dG*dG*dA*d[5mC]*dG*dA*dG*dG*dG*k[5mC]*kG*kG) [compound 829774]”, the “% Inhibition” value was 22%.
Same read-out and setting: the figure for “829775 (antisense k[5mC]*kG*kA*dG*dT*dA*dG*dG*dA*d[5mC]*dG*dA*dG*kG*kG*k[5mC]) [compound 829775]” is 59%.
On the same count and under the same terms, the figure for “829777 (antisense kG*kA*kG*d[5mC]*dG*dA*dG*dT*dA*dG*dG*dA*d[5mC]*kG*kA*kG) [compound 829777]” is 37%; for “829778 (antisense kG*kG*kA*dG*d[5mC]*dG*dA*dG*dT*dA*dG*dG*dA*k[5mC]*kG*kA) [compound 829778]” it is 46%.
Take “829779 (antisense kG*kG*kG*dA*dG*d[5mC]*dG*dA*dG*dT*dA*dG*dG*kA*k[5mC]*kG) [compound 829779]”: the “% Inhibition” value is recorded as 58%.
Still for that read-out and setting: the figure for “829780 (antisense k[5mC]*kG*kG*d[5mC]*d[5mC]*dA*d[5mC]*d[5mC]*dT*dG*dA*dA*d[5mC]*kA*k[5mC]*kT) [compound 829780]” is 37%; for “829781 (antisense k[5mC]*k[5mC]*kG*dG*d[5mC]*d[5mC]*dA*d[5mC]*d[5mC]*dT*dG*dA*dA*k[5mC]*kA*k[5mC]) [compound 829781]” it is 31%.
Same read-out and setting: the figure for “829782 (antisense kA*kT*k[5mC]*d[5mC]*dG*dG*d[5mC]*d[5mC]*dA*d[5mC]*d[5mC]*dT*dG*kA*kA*k[5mC]) [compound 829782]” is 36%; for “829783 (antisense kG*kA*kT*d[5mC]*d[5mC]*dG*dG*d[5mC]*d[5mC]*dA*d[5mC]*d[5mC]*dT*kG*kA*kA) [compound 829783]” it is 52%.
Take “829784 (antisense kA*kG*kA*dT*d[5mC]*d[5mC]*dG*dG*d[5mC]*d[5mC]*dA*d[5mC]*d[5mC]*kT*kG*kA) [compound 829784]”: the “% Inhibition” value is listed as 32%.
On the same count and under the same terms, the figure for “829785 (antisense kA*kT*kG*d[5mC]*d[5mC]*dT*dG*dA*dG*dA*dT*d[5mC]*d[5mC]*kG*kG*k[5mC]) [compound 829785]” is 27%.
The same measure, in the same setting: the figure for “829786 (antisense kG*kA*kA*dT*dG*d[5mC]*d[5mC]*dT*dG*dA*dG*dA*dT*k[5mC]*k[5mC]*kG) [compound 829786]” is 56%; for “829787 (antisense kG*kG*kA*dA*dT*dG*d[5mC]*d[5mC]*dT*dG*dA*dG*dA*kT*k[5mC]*k[5mC]) [compound 829787]” it is 30%.
On the same count and under the same terms, the figure for “829788 (kT*k[5mC]*k[5mC]*dG*dA*dG*dG*dA*dA*dT*dG*d[5mC]*d[5mC]*kT*kG*kA; antisense) [compound 829788]” is 41%; for “829789 (kA*k[5mC]*kT*dT*d[5mC]*d[5mC]*dG*dA*dG*dG*dA*dA*dT*kG*k[5mC]*k[5mC]; antisense) [compound 829789]” it is 42%; for “829790 (k[5mC]*k[5mC]*k[5mC]*dG*dT*dA*dA*dG*dA*dT*dT*d[5mC]*dA*k[5mC]*kA*kG; antisense) [compound 829790]” it is 51%.
“829791 (kT*kT*k[5mC]*d[5mC]*d[5mC]*dG*dT*dA*dA*dG*dA*dT*dT*k[5mC]*kA*k[5mC]; antisense) [compound 829791]”: the “% Inhibition” value was 38%.
Still for that read-out and setting: the figure for “829792 (k[5mC]*kT*kT*d[5mC]*d[5mC]*d[5mC]*dG*dT*dA*dA*dG*dA*dT*kT*k[5mC]*kA; antisense) [compound 829792]” is 39%; for “829793 (kT*k[5mC]*kT*dT*d[5mC]*d[5mC]*d[5mC]*dG*dT*dA*dA*dG*dA*kT*kT*k[5mC]; antisense) [compound 829793]” it is 41%; for “829794 (kG*kA*kT*d[5mC]*dT*dT*d[5mC]*d[5mC]*d[5mC]*dG*dT*dA*dA*kG*kA*kT; antisense) [compound 829794]” it is 24%.

Still in this data set, the particulars now being: SMAD7 mRNA, Hep3B cells, electroporation with 10,000 nM antisense oligonucleotide, approximately 24 hours, primer probe set RTS5062, relative to untreated control cells.
As to “829795 (kT*kG*kA*dT*d[5mC]*dT*dT*d[5mC]*d[5mC]*d[5mC]*dG*dT*dA*kA*kG*kA; antisense) [compound 829795]”, the “% Inhibition” value amounted to 34%.
The same measure, in the same setting: the figure for “829796 (kT*kT*kG*dA*dT*d[5mC]*dT*dT*d[5mC]*d[5mC]*d[5mC]*dG*dT*kA*kA*kG; antisense) [compound 829796]” is 27%; for “829797 (kG*kG*kT*dT*dG*dA*dT*d[5mC]*dT*dT*d[5mC]*d[5mC]*d[5mC]*kG*kT*kA; antisense) [compound 829797]” it is 54%; for “829798 (kG*kG*kG*dT*dT*dG*dA*dT*d[5mC]*dT*dT*d[5mC]*d[5mC]*k[5mC]*kG*kT; antisense) [compound 829798]” it is 26%.
For “829799 (kT*k[5mC]*kG*dG*d[5mC]*dT*dA*dA*dG*dG*dT*dG*dA*kT*kG*kG; antisense) [compound 829799]”, the “% Inhibition” value amounted to 51%.
Take “829800 (kG*kT*k[5mC]*dG*dG*d[5mC]*dT*dA*dA*dG*dG*dT*dG*kA*kT*kG; antisense) [compound 829800]”: the “% Inhibition” value was 30%.
The same measure, in the same setting: the figure for “829801 (kA*kG*kT*d[5mC]*dG*dG*d[5mC]*dT*dA*dA*dG*dG*dT*kG*kA*kT; antisense) [compound 829801]” is 8%; for “829802 (kT*kT*k[5mC]*dG*d[5mC]*dA*dG*dA*dG*dT*d[5mC]*dG*dG*k[5mC]*kT*kA; antisense) [compound 829802]” it is 28%; for “829803 (kA*kG*kT*dT*d[5mC]*dG*d[5mC]*dA*dG*dA*dG*dT*d[5mC]*kG*kG*k[5mC]; antisense) [compound 829803]” it is 35%.
Same read-out and setting: the figure for “829804 (kT*kA*kG*dT*dT*d[5mC]*dG*d[5mC]*dA*dG*dA*dG*dT*k[5mC]*kG*kG; antisense) [compound 829804]” is 39%.
Same read-out and setting: the figure for “829805 (kT*k[5mC]*kT*dA*dG*dT*dT*d[5mC]*dG*d[5mC]*dA*dG*dA*kG*kT*k[5mC]; antisense) [compound 829805]” is 37%.
Regarding “829806 (kG*kA*k[5mC]*dT*d[5mC]*dT*dA*dG*dT*dT*d[5mC]*dG*d[5mC]*kA*kG*kA; antisense) [compound 829806]”, the “% Inhibition” value is listed as 41%.
The same measure, in the same setting: the figure for “829807 (kA*kG*kA*d[5mC]*dT*d[5mC]*dT*dA*dG*dT*dT*d[5mC]*dG*k[5mC]*kA*kG; antisense) [compound 829807]” is 41%.
For “829808 (kG*kG*kA*dG*dA*d[5mC]*dT*d[5mC]*dT*dA*dG*dT*dT*k[5mC]*kG*k[5mC]; antisense) [compound 829808]”, the “% Inhibition” value is 53%.
For the substance “829809 (kG*kG*kG*dA*dG*dA*d[5mC]*dT*d[5mC]*dT*dA*dG*dT*kT*k[5mC]*kG; antisense) [compound 829809]”, the “% Inhibition” value was determined as 51%.
On the same count and under the same terms, the figure for “829810 (kA*kT*k[5mC]*dG*dG*dG*dT*dA*dT*d[5mC]*dT*dG*dG*kA*kG*kT; antisense) [compound 829810]” is 29%.
The same measure, in the same setting: the figure for “829811 (kT*k[5mC]*k[5mC]*dA*dT*d[5mC]*dG*dG*dG*dT*dA*dT*d[5mC]*kT*kG*kG; antisense) [compound 829811]” is 0%.
As to “829814 (kG*kT*k[5mC]*dT*dG*d[5mC]*dA*dG*dT*dT*dG*dG*dT*kT*kT*kG; antisense) [compound 829814]”, the “% Inhibition” value was 94%.
The same measure, in the same setting: the figure for “829822 (kT*kG*kT*dT*dT*d[5mC]*dA*dG*d[5mC]*dG*dG*dA*dG*kG*kA*kA; antisense) [compound 829822]” is 43%; for “829829 (kT*k[5mC]*kT*dG*dA*dA*dA*dG*d[5mC]*d[5mC]*d[5mC]*d[5mC]*d[5mC]*k[5mC]*kA*kG; antisense) [compound 829829]” it is 11%; for “829830 (kA*kA*kT*d[5mC]*dT*dG*dA*dA*dA*dG*d[5mC]*d[5mC]*d[5mC]*k[5mC]*k[5mC]*k[5mC]; antisense) [compound 829830]” it is 36%.
Take “829831 (kG*kA*k[5mC]*d[5mC]*dG*dA*dT*d[5mC]*d[5mC]*d[5mC]*d[5mC]*dA*dG*kG*k[5mC]*kT; antisense) [compound 829831]”: the “% Inhibition” value was determined as 9%.

(Values after patent publication US10517889B2, “Modulators of SMAD7 expression” (Ionis Pharmaceuticals, Inc., priority 2017, dated 2019).)
